# According to patent US7807630B2, “Targeting of Notch3 receptor function for cancer therapy” (Vanderbilt University, priority 2007, dated 2010):
# “Also recorded” adds a separate entry of the source. Where no end group is shown, it is not given here.
# Tests used:
# HCC2429 cells [1] = assay: Sensitivity to the EGFR tyrosine kinase inhibitor AG1478 with and without Notch3 inhibition (DN construct); assay type: cell-based, human
# From the text: (§1) FIGS. 11A-B. Notch3 modulates the EGF pathway and increases sensitivity to an EGFr inhibitor. (FIG. 11A) In HCC2429, inhibition of the Notch3 pathway increases sensitivity to AG1478 nearly 40-fold. […] (FIG. 11B) A similar observation is made in H460 when the inventors combine AG1478 with L-685,458, a γ-secretase inhibitor, further supporting the hypothesis that EGF cooperates with the Notch pathway in oncogenesis.
# (§2) EGFr Inhibitors Enhance the Anti-proliferation Effect of Notch3 Inhibition. […] Based on existing literature and their observations, the inventors hypothesized that Notch3 acts synergistically with the EGFR pathway in the promotion and the survival of lung cancer cells and that combining inhibitors of both pathways will have synergistic therapeutic value. To test this hypothesis, the inventors examined whether inhibiting the Notch3 pathway increases tumor inhibition when lung cancer cells are treated with an EGFR tyrosine kinase inhibitor, AG1478. […] Synergism can also be observed when the γ-secretase inhibitor L-685,458 is added to AG1478 (FIG. 11B). […] From a therapeutic standpoint, Notch3 is a good target for therapeutic intervention both alone and in combination with growth factor receptor inhibitors.
# H460 = assay: Sensitivity to AG1478 with and without Notch3 inhibition (DN construct or γ-secretase inhibitor); assay type: cell-based, human
# From the text: as §1, §2
# HCC2429 xenografts = assay: MRK003 treatment of subcutaneous HCC2429 xenografts; assay type: in vivo, mice
# Description: (FIG. 8A) Xenografts injected with HCC2429 were treated with MRK003 once the tumors became palpable. After 2 weeks of treatment, the inventors observed about a 50% reduction in tumor size. […] Histological examination of resected tumors from xenografts at the end of treatment.
# To assess the effect of pharmacologically inhibiting Notch activation in vivo, the inventors treated subcutaneous xenografts with MRK003, a γ-secretase inhibitor from Merck, Inc. & Co. Based on the manufacturer's recommended dose, the mice were treated with 100 mg/kg orally for 3 consecutives days per week once the tumors were palpable. At the end of a 2-week treatment, the animals were then euthanized, and the tumors were harvested.
# HCC2429 cells [2] = assay: Cell survival with MRK003 in HCC2429 clones expressing Notch3 siRNA; assay type: cell-based, human; conditions: HCC2429 clones with loss of Notch3 (siRNA-N3)
# Description: HCC2429 cells are sensitive to GSI, and the sensitivity increases in low serum, similarly to that observed with clones expressing the DN construct. Tumor cells treated with DMSO alone had no change in cell viability. (FIG. 7B) Inhibition of S3 proteolytic processing results in the decrease of Notch3 intracellular domain (N3ICD) and accumulation of S2 product (N3ΔE) after 3 hours. (FIG. 7C) In this experiment, HCC2429 was stably transfected with plasmid vector expressing Notch3 siRNA.
# A γ-Secretase Inhibitor Reduces Proliferation in Lung Cancer Cells. Proteolytic processing of Notch receptors is required for activation. As previously described, three proteolytic cleavage sites are involved in enabling Notch signaling. In the final step, the membrane-associated Notch fragment is cleaved within its transmembrane domain by a γ-secretase-containing protein complex. Mammalian presenilins (PS-1 and PS-2) are polytopic transmembrane proteins that appear to function as aspartyl proteases within a multiprotein, γ-secretase complex (Wolfe and Kopan, 2004). Presenilins provide the active site of the proteolytic activity. This last cleavage releases the Notch intracellular domain, initiating CBF-1-mediated signaling. […]
# [3] = test system: HCC2429 lung cancer cell line; assay: Soft-agar colony assay, MRK003 with AG1478; assay type: cell-based, human
# From the text: FIGS. 12A-B. In HCC2429 lung cancer cell line, Notch inhibitor MRK003 enhances the effect of EGFR inhibitor AG1478 on colony formation in soft agar. […] (FIG. 12B) Graph depicts the quantitative decrease in colony formation.
# as §2
# [4] = Peptide screen for apoptosis by Annexin V staining using an FMAT system; assay type: cell-based; conditions: FMAT screen of 155 peptides, quadruplicate
# Description: FIG. 13. […] Each of 155 different peptides were assayed in quadruplicate, and only those peptides that produced a significant increase of fluorescence signal in all 4 wells were considered potentially positive or capable of inducing apoptosis. The bar graphs here reflect fluorescence counts. Sequences N102: CATAV, N103: CFHGAT, N105: CVSNP, N132: CLNGGS.
# (§3) Each of 155 different peptides were assayed in quadruplicate, and only those peptides that produced a significant increase of fluorescence signal in all 4 wells were considered potentially positive or capable of inducing apoptosis. The bar graphs here reflect fluorescence counts. […] The peptides were then immunoprecipitated from cell lysate with streptavidin beads and immunoblotted with anti-HA antibody.
# HCC2429 = assay: Apoptosis by annexin V labelling and flow cytometry after Notch3 peptide treatment; assay type: cell-based, human; conditions: HCC2429, compared to control
# Description: (FIG. 14A) HCC2429 was treated with Notch3 peptides N16, N17, N102, N103, N132. […] MRK003-treated cell is used as positive control. After treatment, cells were labeled with annexin V and detected using flow cytometry. […] MRK003-treated cells were used as positive control. Sequences N16: CFNTLGGHS, N17: CVCVNGWTGES, N102: CATAV, N103: CFHGAT, N132: CLNGGS. […]
# [5] = test system: Notch3-dependent gene Hey1; assay: Hey1 transcription by real-time RT-PCR after peptide treatment; assay type: cell-based, human
# Jagged1 = target: T1, Jagged1 (Homo sapiens, UniProt P78504); assay: Streptavidin pull-down of peptides from Jagged1-HA transfected HEK cells, anti-HA immunoblot; assay type: binding; conditions: HEK cells transfected with Jagged1-HA, anti-HA blot
# T1 construct: expressed in transfected cells; host or cells: HEK cells
# Description: FIG. 15. […] HEK cells were transfected with Jagged1-HA and treated with Notch3 peptides. The peptides were then immunoprecipitated from cell lysate with streptavidin beads and immunoblotted with anti-HA antibody. No: no input; C: control peptide. Sequences N16: CFNTLGGHS, N17: CVCVNGWTGES, N102: CATAV, N103: CFHGAT, N132: CLNGGS.
# as §3
# [6] = Apoptosis (percentage of annexin V positive cells) after Fc-fusion protein treatment; assay type: cell-based; conditions: 40 hrs treatment, compared to control and Fc control
# Description: […] […] Apoptosis was determined by percentage of annexin V positive cells. Sequences N16: CFNTLGGHS, N17: CVCVNGWTGES, N132: CLNGGS.
# T1 sequence (P78504 34-1218, species assumed): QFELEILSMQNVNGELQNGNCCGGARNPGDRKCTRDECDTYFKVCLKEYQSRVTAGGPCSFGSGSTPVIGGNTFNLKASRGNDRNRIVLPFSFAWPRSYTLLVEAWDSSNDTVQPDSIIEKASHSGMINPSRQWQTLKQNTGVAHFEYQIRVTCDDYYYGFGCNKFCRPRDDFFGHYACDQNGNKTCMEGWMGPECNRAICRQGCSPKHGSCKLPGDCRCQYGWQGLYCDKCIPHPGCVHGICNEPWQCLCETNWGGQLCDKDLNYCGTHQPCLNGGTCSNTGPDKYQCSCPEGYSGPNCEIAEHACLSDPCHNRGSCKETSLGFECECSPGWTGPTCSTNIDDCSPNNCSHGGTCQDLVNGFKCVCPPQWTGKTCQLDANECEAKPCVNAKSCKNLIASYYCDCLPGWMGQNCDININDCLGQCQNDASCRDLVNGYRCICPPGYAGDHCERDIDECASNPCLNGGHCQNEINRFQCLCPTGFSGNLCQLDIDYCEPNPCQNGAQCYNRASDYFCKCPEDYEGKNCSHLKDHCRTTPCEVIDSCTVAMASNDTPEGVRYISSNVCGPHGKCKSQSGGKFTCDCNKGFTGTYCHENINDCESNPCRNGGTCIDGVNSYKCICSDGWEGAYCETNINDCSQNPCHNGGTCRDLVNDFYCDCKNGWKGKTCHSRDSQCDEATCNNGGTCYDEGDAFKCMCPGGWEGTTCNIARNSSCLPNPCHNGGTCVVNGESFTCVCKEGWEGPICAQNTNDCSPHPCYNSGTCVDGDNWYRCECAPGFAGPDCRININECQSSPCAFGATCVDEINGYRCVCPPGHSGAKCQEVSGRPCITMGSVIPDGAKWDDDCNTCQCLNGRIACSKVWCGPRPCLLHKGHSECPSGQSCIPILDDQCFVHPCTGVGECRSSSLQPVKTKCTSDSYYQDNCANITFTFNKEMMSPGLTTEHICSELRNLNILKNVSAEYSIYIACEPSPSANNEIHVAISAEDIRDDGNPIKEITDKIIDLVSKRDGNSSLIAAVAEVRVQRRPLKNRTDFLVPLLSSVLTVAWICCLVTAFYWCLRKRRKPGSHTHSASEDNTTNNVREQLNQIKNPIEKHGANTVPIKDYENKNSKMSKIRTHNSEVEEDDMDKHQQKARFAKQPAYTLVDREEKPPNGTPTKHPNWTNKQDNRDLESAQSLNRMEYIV
Compound,apoptosis by Annexin V staining (fluorescence counts) [4],"apoptosis (annexin V, flow cytometry) (HCC2429)",transcription of Notch3-dependent gene Hey1 [5],binding to ligand Jagged1 (Jagged1),also measured
COc1cc2ncnc(Nc3cccc(Cl)c3)c2cc1OC [AG1478],,,,,"increase in sensitivity to AG1478 upon inhibition of the Notch3 pathway (HCC2429 cells [1]; HCC2429, DN construct versus control): 40 fold; IC50 (HCC2429 cells [1]; HCC2429, EGF-supplemented media, without Notch3 inhibition): 8.3 µM; IC50 (HCC2429 cells [1]; HCC2429 clones transfected with the DN (dominant-negative Notch3) construct, EGF-supplemented media): 0.2 µM; IC50 (H460; H460, without Notch3 inhibition): 23.8 µM; reduction of cancer cell survival upon inhibition of the Notch3 pathway (H460; H460 treated with AG1478): approximately two-fold; IC50 (H460; H460 with inhibition of the Notch3 pathway): 12.1 µM"
"CC(C)C[C@H](NC(=O)[C@H](Cc1ccccc1)C[C@@H](O)[C@H](Cc1ccccc1)NC(=O)OC(C)(C)C)C(=O)N[C@@H](Cc1ccccc1)C(N)=O [L-685,458]",,,,,"combined effect of L-685,458 added to AG1478 (H460; H460 (FIG. 11B)): Synergism"
O=S1(=O)N[C@@]2(CN1CC(F)(F)F)[C@@H]1CC[C@H]2Cc2ccc(/C=C/CN3CCC(C(F)(F)F)CC3)cc2C1 [MRK003],,,,,"tumor size (HCC2429 xenografts; 100 mg/kg orally, 3 consecutive days per week, end of 2-week treatment): reduction of tumor size; reduction in tumor size (HCC2429 xenografts; HCC2429 xenografts, 100 mg/kg orally, 3 consecutive days per week, after 2 weeks of treatment): ~50%; histological examination of resected tumors (HCC2429 xenografts; end of treatment, compared to control): Marked necrosis; activated Notch3 (N3ICD) in tumor (HCC2429 xenografts; xenograft tumors treated with MRK003): reduction in activated Notch3 (N3ICD); also recorded: Loss of activated Notch3 (N3ICD); cell survival when treated with MRK003 (HCC2429 cells [2]): no loss in cell survival; colony formation in soft agar ([3]; HCC2429, MRK003 alone): decreases colony formation; colony formation in soft agar, combination with EGFR inhibitor AG1478 ([3]; HCC2429, MRK003 combined with AG1478): additive effects; also recorded: enhances the effect of AG1478 on growth"
"CATAV [N102, Notch3 peptide]",induce apoptosis,Induction of apoptosis,reduced transcription of Notch3-dependent gene Hey1,binding to ligand Jagged1,
"CFHGAT [N103, Notch3 peptide]",induce apoptosis,Induction of apoptosis,reduced transcription of Notch3-dependent gene Hey1,binding to ligand Jagged1,
"CFNTLGGHS [N16, Notch3 peptide]",,Induction of apoptosis,reduced transcription of Notch3-dependent gene Hey1,binding to ligand Jagged1,
"CLNGGS [N132, Notch3 peptide]",induce apoptosis,Induction of apoptosis,reduced transcription of Notch3-dependent gene Hey1,binding to ligand Jagged1,
"CVCVNGWTGES [N17, Notch3 peptide]",,Induction of apoptosis; also recorded: highest apoptotic activity,reduced transcription of Notch3-dependent gene Hey1; also recorded: best reduction in Hey1 transcription,binding to ligand Jagged1,
"CVSNP [N105, Notch3 peptide]",induce apoptosis,,,,
N16-17-Fc: Purified recombinant Fc-fusion Notch3 protein with N16-17 sequences (CFNTLGGHSCVCVNGWTGES; cysteine pairing not given here; also: Fc fusion (dimerising Fc left off)),,,,,apoptosis (percentage of annexin V positive cells) [6]: induces apoptosis
